Values quoted from earlier work as cited in patent publication US12133849B2, “Method for treating cancer using a BCL-2 inhibitor in conjunction with an alpha- emitting radioimmunotherapeutic” (Actinium Pharmaceuticals, Inc., priority 2017, dated 2024).

CC1(C)CCC(CN2CCN(c3ccc(C(=O)NS(=O)(=O)c4ccc(NCC5CCOCC5)c([N+](=O)[O-])c4)c(Oc4cnc5[nH]ccc5c4)c3)CC2)=C(c2ccc(Cl)cc2)C1 [venetoclax]
patients experiencing grade 3 and/or 4 neutropenia: 40%
